Source: US20240067632A1, “WEE1 Degrading Compounds and Uses Thereof” (Bristol-Myers Squibb Company, priority 2022, published 2024)
Where two headings read alike, the source gives them in different places.

Legend:
WEE1 = biological target: T1, WEE1 (Homo sapiens, UniProt P30291+Q96SW2); assay: WEE1-ePL degradation assay (LentiX-WEE1-ePL-GSPT1-ND cells, InCELL Hunter luminescence, 4 h); format: cell-based; details: 293T-LentiX WEE1-ePL cells; for DC50: read-out: 293T-LentiX WEE1-ePL Degradation 4 hr (EC50)
T1 construct: C-terminal ePL-tagged (DiscoverX, Fremont, CA) full-length WEE1 expression construct; expressed in transfected cells; host or cells: LentiX-HEK293T (Invitrogen), lentiviral transduction; co-expressing GSPT1-GN (G576N, lacking the first 158 amino acids)
How it was run: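 First, compounds were pre-plated as 10-point, 3-fold dilutions (top 1 uM or 10 uM) with DMSO control; next, WEE1-ePL-expressing HEK293T cells were added and held 4 h at 37 °C; finally, InCELL Hunter reagent was applied for 30 min before luminescence reading. A 4PL fit gave EC50 and Ymin.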

MKN45 cells = assay: MKN45 cell proliferation assay (Cell-Titer-Glo, 120 h); format: cell-based; details: for EC50: Homo sapiens, MKN-45, 120 h, Cell-Titer-Glo, read-out: MKN45 Cell Prolif. 120 hr (EC50); for MKN45 Cell Prolif. 120 hr (Ymin-Obs): minimal percent of DMSO control observed in the concentrations tested
How it was run: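 Growth inhibition was read as blank-corrected Cell-Titer-Glo luminescence expressed as percent DMSO control after 120 h at 37 C, 400 cells/well. Compounds tested in triplicate as 10-point half-log series from 1 or 10 uM, 0.1% DMSO; four-parameter fit gave EC50, and lowest observed percent control was reported as Ymin-obs.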

[1] = lower limit of the fit (0 = luciferase inhibitor, Ymax = DMSO control)

SMILES: O=C1CCC(N2Cc3cc(O[C@H]4CCN(Cc5ccc6nc(N7CCCCC7=O)ccc6c5)C4)ccc3C2=O)C(=O)N1 (stereo partly drawn) [3-(1-oxo-5-{[(3S)-1-{[2-(2-oxopiperidin-1-yl)quinolin-6-yl]methyl}pyrrolidin-3-yl]oxy}-2,3-dihydro-1H-isoindol-2-yl)piperidine-2,6-dione]
- 293T-LentiX WEE1-ePL Degradation 4 hr (Ymin) (WEE1; [1]): 31.5
- DC50 (WEE1): 1.73 nM
- EC50 (MKN45 cells; growth inhibition): 0.959 nM
- MKN45 Cell Prolif. 120 hr (Ymin-Obs) (MKN45 cells): 7.56

SMILES: O=C1CCC(N2Cc3cc(O[C@H]4CCN(Cc5ccc6nc(N7CCCC7=O)ccc6c5)C4)ccc3C2=O)C(=O)N1 (stereo partly drawn) [3-(1-oxo-5-{[(3S)-1-{[2-(2-oxopyrrolidin-1-yl)quinolin-6-yl]methyl}pyrrolidin-3-yl]oxy}-2,3-dihydro-1H-isoindol-2-yl)piperidine-2,6-dione]
- 293T-LentiX WEE1-ePL Degradation 4 hr (Ymin) (WEE1; [1]): 31
- DC50 (WEE1): 1.83 nM
- EC50 (MKN45 cells; growth inhibition): 7.19 nM
- MKN45 Cell Prolif. 120 hr (Ymin-Obs) (MKN45 cells): 10.36

SMILES: O=C1CCC(N2Cc3cc(O[C@H]4CCN(Cc5ccc6nc(N7CCOCC7=O)ccc6c5)C4)ccc3C2=O)C(=O)N1 (stereo partly drawn) [3-(1-oxo-5-{[(3S)-1-{[2-(3-oxomorpholin-4-yl)quinolin-6-yl]methyl}pyrrolidin-3-yl]oxy}-2,3-dihydro-1H-isoindol-2-yl)piperidine-2,6-dione]
- 293T-LentiX WEE1-ePL Degradation 4 hr (Ymin) (WEE1; [1]): 32
- DC50 (WEE1): 2.43 nM
- EC50 (MKN45 cells; growth inhibition): 2.91 nM
- MKN45 Cell Prolif. 120 hr (Ymin-Obs) (MKN45 cells): 6.88

SMILES: CC#Cc1ncc2cc(CN3CC[C@H](Oc4ccc5c(c4)CN(C4CCC(=O)NC4=O)C5=O)C3)ccc2n1 (stereo partly drawn) [3-(1-oxo-5-{[(3S)-1-{[2-(prop-1-yn-1-yl)quinazolin-6-yl]methyl}pyrrolidin-3-yl]oxy}-2,3-dihydro-1H-isoindol-2-yl)piperidine-2,6-dione]
- 293T-LentiX WEE1-ePL Degradation 4 hr (Ymin) (WEE1; [1]): 29
- DC50 (WEE1): 38.9 nM
- EC50 (MKN45 cells; growth inhibition): 51.6 nM
- MKN45 Cell Prolif. 120 hr (Ymin-Obs) (MKN45 cells): 8.56

SMILES: CC#Cc1ccc2cc(CN3CC[C@H](Oc4ccc5c(c4)CN(C4CCC(=O)NC4=O)C5=O)C3)ccc2n1 (stereo partly drawn) [3-(1-oxo-5-{[(3S)-1-{[2-(prop-1-yn-1-yl)quinolin-6-yl]methyl}pyrrolidin-3-yl]oxy}-2,3-dihydro-1H-isoindol-2-yl)piperidine-2,6-dione]
- 293T-LentiX WEE1-ePL Degradation 4 hr (Ymin) (WEE1; [1]): 29.33
- DC50 (WEE1): 3.18 nM
- EC50 (MKN45 cells; growth inhibition): 2.02 nM
- MKN45 Cell Prolif. 120 hr (Ymin-Obs) (MKN45 cells): 8.03

SMILES: O=C1CCC(N2Cc3cc(O[C@H]4CCN(Cc5ccc6nc(Oc7ccccn7)ccc6c5)C4)ccc3C2=O)C(=O)N1 (stereo partly drawn) [3-(1-oxo-5-{[(3S)-1-{[2-(pyridin-2-yloxy)quinolin-6-yl]methyl}pyrrolidin-3-yl]oxy}-2,3-dihydro-1H-isoindol-2-yl)piperidine-2,6-dione]
- 293T-LentiX WEE1-ePL Degradation 4 hr (Ymin) (WEE1; [1]): 35
- DC50 (WEE1): 6.39 nM
- EC50 (MKN45 cells; growth inhibition): 2.88 nM
- MKN45 Cell Prolif. 120 hr (Ymin-Obs) (MKN45 cells): 7.62

SMILES: O=C1CCC(N2Cc3cc(O[C@H]4CCN(Cc5ccc6nc(N7CCCC7)ccc6c5)C4)ccc3C2=O)C(=O)N1 (stereo partly drawn) [3-(1-oxo-5-{[(3S)-1-{[2-(pyrrolidin-1-yl)quinolin-6-yl]methyl}pyrrolidin-3-yl]oxy}-2,3-dihydro-1H-isoindol-2-yl)piperidine-2,6-dione]
- 293T-LentiX WEE1-ePL Degradation 4 hr (Ymin) (WEE1; [1]): 34
- DC50 (WEE1): 3.97 nM
- EC50 (MKN45 cells; growth inhibition): 6.02 nM
- MKN45 Cell Prolif. 120 hr (Ymin-Obs) (MKN45 cells): 11.865

SMILES: O=C1CCC(N2Cc3cc(O[C@H]4CCN(Cc5ccc6nc(C(F)(F)F)ncc6c5)C4)ccc3C2=O)C(=O)N1 (stereo partly drawn) [3-(1-oxo-5-{[(3S)-1-{[2-(trifluoromethyl)quinazolin-6-yl]methyl}pyrrolidin-3-yl]oxy}-2,3-dihydro-1H-isoindol-2-yl)piperidine-2,6-dione]
- 293T-LentiX WEE1-ePL Degradation 4 hr (Ymin) (WEE1; [1]): 29.67
- DC50 (WEE1): 8.11 nM
- EC50 (MKN45 cells; growth inhibition): 33.2 nM
- MKN45 Cell Prolif. 120 hr (Ymin-Obs) (MKN45 cells): 14.74

SMILES: O=C1CCC(N2Cc3cc(O[C@H]4CCN(Cc5cc6ccccc6nc5C(F)(F)F)C4)ccc3C2=O)C(=O)N1 (stereo partly drawn) [3-(1-oxo-5-{[(3S)-1-{[2-(trifluoromethyl)quinolin-3-yl]methyl}pyrrolidin-3-yl]oxy}-2,3-dihydro-1H-isoindol-2-yl)piperidine-2,6-dione]
- 293T-LentiX WEE1-ePL Degradation 4 hr (Ymin) (WEE1; [1]): 39.87
- DC50 (WEE1): 29.3 nM
- EC50 (MKN45 cells; growth inhibition): 257 nM
- MKN45 Cell Prolif. 120 hr (Ymin-Obs) (MKN45 cells): 73.03

SMILES: O=C1CCC(N2Cc3cc(O[C@H]4CCN(Cc5ccc6nc(C(F)(F)F)ccc6c5)C4)ccc3C2=O)C(=O)N1 (stereo partly drawn) [3-(1-oxo-5-{[(3S)-1-{[2-(trifluoromethyl)quinolin-6-yl]methyl}pyrrolidin-3-yl]oxy}-2,3-dihydro-1H-isoindol-2-yl)piperidine-2,6-dione]
- 293T-LentiX WEE1-ePL Degradation 4 hr (Ymin) (WEE1; [1]): 24.72
- DC50 (WEE1): 5.42 nM
- EC50 (MKN45 cells; growth inhibition): 7.29 nM
- MKN45 Cell Prolif. 120 hr (Ymin-Obs) (MKN45 cells): 8.76

SMILES: O=C1CCC(N2Cc3cc(O[C@H]4CCN(Cc5ccc6ncc(C(F)(F)F)cc6c5)C4)ccc3C2=O)C(=O)N1 (stereo partly drawn) [3-(1-oxo-5-{[(3S)-1-{[3-(trifluoromethyl)quinolin-6-yl]methyl}pyrrolidin-3-yl]oxy}-2,3-dihydro-1H-isoindol-2-yl)piperidine-2,6-dione]
- 293T-LentiX WEE1-ePL Degradation 4 hr (Ymin) (WEE1; [1]): 32
- DC50 (WEE1): 2.85 nM
- EC50 (MKN45 cells; growth inhibition): 15.9 nM
- MKN45 Cell Prolif. 120 hr (Ymin-Obs) (MKN45 cells): 11.23

SMILES: O=C1CCC(N2Cc3cc(O[C@H]4CCN(Cc5ccc(C(F)(F)F)cn5)C4)ccc3C2=O)C(=O)N1 (stereo partly drawn) [3-(1-oxo-5-{[(3S)-1-{[5-(trifluoromethyl)pyridin-2-yl]methyl}pyrrolidin-3-yl]oxy}-2,3-dihydro-1H-isoindol-2-yl)piperidine-2,6-dione]
- 293T-LentiX WEE1-ePL Degradation 4 hr (Ymin) (WEE1; [1]): 53.66
- DC50 (WEE1): 52.6 nM
- EC50 (MKN45 cells; growth inhibition): 363 nM
- MKN45 Cell Prolif. 120 hr (Ymin-Obs) (MKN45 cells): 65.6

SMILES: O=C1CCC(N2Cc3cc(O[C@H]4CCN(Cc5cncc(C(F)(F)F)c5)C4)ccc3C2=O)C(=O)N1 (stereo partly drawn) [3-(1-oxo-5-{[(3S)-1-{[5-(trifluoromethyl)pyridin-3-yl]methyl}pyrrolidin-3-yl]oxy}-2,3-dihydro-1H-isoindol-2-yl)piperidine-2,6-dione]
- 293T-LentiX WEE1-ePL Degradation 4 hr (Ymin) (WEE1; [1]): 33.76
- DC50 (WEE1): 36.9 nM
- EC50 (MKN45 cells; growth inhibition): 842 nM
- MKN45 Cell Prolif. 120 hr (Ymin-Obs) (MKN45 cells): 54.82

SMILES: O=C1CCC(N2Cc3cc(O[C@H]4CCN(Cc5cc6ccc(C(F)(F)F)cc6cn5)C4)ccc3C2=O)C(=O)N1 (stereo partly drawn) [3-(1-oxo-5-{[(3S)-1-{[7-(trifluoromethyl)isoquinolin-3-yl]methyl}pyrrolidin-3-yl]oxy}-2,3-dihydro-1H-isoindol-2-yl)piperidine-2,6-dione]
- 293T-LentiX WEE1-ePL Degradation 4 hr (Ymin) (WEE1; [1]): 31
- DC50 (WEE1): 1.47 nM
- EC50 (MKN45 cells; growth inhibition): 1.14 nM
- MKN45 Cell Prolif. 120 hr (Ymin-Obs) (MKN45 cells): 6.875

SMILES: [2H]c1nc2ccccc2cc1CN1CCC(Oc2ccc3c(c2)CN(C2CCC(=O)NC2=O)C3=O)C1 [3-(1-oxo-5-{[(3S)-1-{[(2-^2H)quinolin-3-yl]methyl}pyrrolidin-3-yl]oxy}-2,3-dihydro-1H-isoindol-2-yl)piperidine-2,6-dione]
- 293T-LentiX WEE1-ePL Degradation 4 hr (Ymin) (WEE1; [1]): 25.75
- DC50 (WEE1): 8.41 nM
- EC50 (MKN45 cells; growth inhibition): 28.5 nM
- MKN45 Cell Prolif. 120 hr (Ymin-Obs) (MKN45 cells): 9.675

SMILES: [2H]c1ccc2cc(CN3CCC(Oc4ccc5c(c4)CN(C4CCC(=O)NC4=O)C5=O)C3)ccc2n1 [3-(1-oxo-5-{[(3S)-1-{[(2-^2H)quinolin-6-yl]methyl}pyrrolidin-3-yl]oxy}-2,3-dihydro-1H-isoindol-2-yl)piperidine-2,6-dione]
- 293T-LentiX WEE1-ePL Degradation 4 hr (Ymin) (WEE1; [1]): 29.5
- DC50 (WEE1): 4.09 nM
- EC50 (MKN45 cells; growth inhibition): 26.9 nM
- MKN45 Cell Prolif. 120 hr (Ymin-Obs) (MKN45 cells): 9.14

SMILES: O=C1CCC(N2Cc3cc(O[C@@H]4CN(Cc5ccc6nc([C@H]7CCOC7)ccc6c5)C[C@H]4C(F)(F)F)ccc3C2=O)C(=O)N1 (stereo partly drawn) [3-(1-oxo-5-{[(3S,4R)-1-({2-[(3R)-oxolan-3-yl]quinolin-6-yl}methyl)-4-(trifluoromethyl)pyrrolidin-3-yl]oxy}-2,3-dihydro-1H-isoindol-2-yl)piperidine-2,6-dione]
- 293T-LentiX WEE1-ePL Degradation 4 hr (Ymin) (WEE1; lower limit of the fit (Ymin=0 luciferase inhibitor, Ymax DMSO control)): 27.14
- DC50 (WEE1): 3.64 nM
- EC50 (MKN45 cells): 22.6 nM
- MKN45 Cell Prolif. 120 hr (Ymin-Obs) (MKN45 cells): 24.26

SMILES: O=C1CCC(N2Cc3ccc(O[C@H]4CCN(Cc5cnc6ccccc6c5)C4)cc3C2=O)C(=O)N1 (stereo partly drawn) [3-(1-oxo-6-{[(3S)-1-[(quinolin-3-yl)methyl]pyrrolidin-3-yl]oxy}-2,3-dihydro-1H-isoindol-2-yl)piperidine-2,6-dione]
- 293T-LentiX WEE1-ePL Degradation 4 hr (Ymin) (WEE1; [1]): 27.98
- DC50 (WEE1): 8.74 nM
- EC50 (MKN45 cells; growth inhibition): 42.4 nM
- MKN45 Cell Prolif. 120 hr (Ymin-Obs) (MKN45 cells): 12.43

SMILES: O=C1CCC(N2Cc3ccc(O[C@H]4CCN(Cc5ccc6ncccc6c5)C4)cc3C2=O)C(=O)N1 (stereo partly drawn) [3-(1-oxo-6-{[(3S)-1-[(quinolin-6-yl)methyl]pyrrolidin-3-yl]oxy}-2,3-dihydro-1H-isoindol-2-yl)piperidine-2,6-dione]
- 293T-LentiX WEE1-ePL Degradation 4 hr (Ymin) (WEE1; [1]): 88.79
- EC50 (MKN45 cells; growth inhibition): 14.6 nM
- MKN45 Cell Prolif. 120 hr (Ymin-Obs) (MKN45 cells): 82.37

SMILES: Cc1ccc2cc(CN3CC[C@H](Oc4ccc5c(c4)CN(C4CCC(=O)NC4=O)C5=O)[C@H]3C)ccc2n1 (stereo partly drawn) [3-(5-{[(2R,3S)-2-methyl-1-[(2-methylquinolin-6-yl)methyl]pyrrolidin-3-yl]oxy}-1-oxo-2,3-dihydro-1H-isoindol-2-yl)piperidine-2,6-dione]
- 293T-LentiX WEE1-ePL Degradation 4 hr (Ymin) (WEE1; [1]): 34
- DC50 (WEE1): 16.7 nM
- EC50 (MKN45 cells; growth inhibition): 339 nM
- MKN45 Cell Prolif. 120 hr (Ymin-Obs) (MKN45 cells): 28.935
